Earlier results, collected in patent US20040208833A1, “Novel fluticasone formulations” (Elan Pharma International Ltd., priority 2003, published 2004).

Assays:
[1] = not given; remark: listed apart in the source
[2] = oral dosing of radiolabeled drug

For CCC(=O)O[C@]1(C(=O)SCF)[C@H](C)C[C@H]2[C@@H]3C[C@H](F)C4=CC(=O)C=C[C@]4(C)[C@@]3(F)[C@@H](O)C[C@@]21C [Fluticasone propionate, S-fluoromethyl-6α,9-difluoro-11β-hydroxy-16α-methyl-3-oxoandrosta-1,4-diene-17β-carbothioate, 17-propionate], the oral systemic bioavailability (oral dosing of labeled and unlabeled conventional fluticasone propionate) is listed as < 1%, the absorption [2] is listed as “low” and the extraction from plasma [2] is listed as “highly extracted from plasma”. For the same compound, the oral bioavailability [2] was “neglible”, the “solubility in 95% ethanol” value ([1]; 95% ethanol) was “slightly soluble” and the “solubility in dimethyl sulfoxide” value ([1]; dimethyl sulfoxide) was “freely soluble”. The solubility in dimethylformamide ([1]; dimethylformamide) was “freely soluble”, the solubility in methanol ([1]; methanol) was “slightly soluble” and the solubility in water ([1]; water) was “practically insoluble”.
